From paper PMC10004634 (PLOS ONE, 2023)

How the values were obtained:
Assay in all cases: biochemical
Parameters in all cases: KINOMEscan scanMAX competition binding, DNA-tagged kinases, qPCR read-out, percent control at 300 nM
CDC2L2 = target: T1, CDC2L2 (Homo sapiens, UniProt Q9UQ88); settings: read-out: Percent control / Acalabrutinib
T1 construct: gene CDK11A

CDK9 = CDK9 (Homo sapiens, UniProt P50750); settings: read-out: Percent control / Acalabrutinib
JNK3 = target: T2, JNK3 (Homo sapiens, UniProt P53779); settings: read-out: Percent control / Acalabrutinib
T2 construct: gene MAPK10

CAMK2A = CAMK2A (Homo sapiens, UniProt Q9UQM7); settings: read-out: Percent control / Ibrutinib
PRKR = target: T3, PRKR (Homo sapiens, UniProt P19525); settings: read-out: Percent control / Tirabrutinib
T3 construct: gene EIF2AK2

EPHA5 = EPHA5 (Homo sapiens, UniProt P54756); settings: read-out: Percent control / Zanubrutinib
PIK3CA(E545A) = PIK3CA(E545A) (Homo sapiens, UniProt P42336, E545A); settings: read-out: Percent control / Zanubrutinib
MYLK2 = MYLK2 (Homo sapiens, UniProt Q9H1R3); settings: read-out: Percent control / Zanubrutinib
GRK1 = GRK1 (Homo sapiens, UniProt Q15835); settings: read-out: Percent control / Zanubrutinib
AKT1 = AKT1 (Homo sapiens, UniProt P31749); settings: read-out: Percent control / Zanubrutinib
RIOK2 = RIOK2 (Homo sapiens, UniProt Q9BVS4); settings: read-out: Percent control / Zanubrutinib
ACVR1 = ACVR1 (Homo sapiens, UniProt Q04771); settings: read-out: Percent control / Zanubrutinib
PLK1 = PLK1 (Homo sapiens, UniProt P53350); settings: read-out: Percent control / Zanubrutinib
ZAP70 = ZAP70 (Homo sapiens, UniProt P43403); settings: read-out: Percent control / Zanubrutinib
VRK2 = VRK2 (Homo sapiens, UniProt Q86Y07); settings: read-out: Percent control / Zanubrutinib

T3 sequence (P19525 whole entry): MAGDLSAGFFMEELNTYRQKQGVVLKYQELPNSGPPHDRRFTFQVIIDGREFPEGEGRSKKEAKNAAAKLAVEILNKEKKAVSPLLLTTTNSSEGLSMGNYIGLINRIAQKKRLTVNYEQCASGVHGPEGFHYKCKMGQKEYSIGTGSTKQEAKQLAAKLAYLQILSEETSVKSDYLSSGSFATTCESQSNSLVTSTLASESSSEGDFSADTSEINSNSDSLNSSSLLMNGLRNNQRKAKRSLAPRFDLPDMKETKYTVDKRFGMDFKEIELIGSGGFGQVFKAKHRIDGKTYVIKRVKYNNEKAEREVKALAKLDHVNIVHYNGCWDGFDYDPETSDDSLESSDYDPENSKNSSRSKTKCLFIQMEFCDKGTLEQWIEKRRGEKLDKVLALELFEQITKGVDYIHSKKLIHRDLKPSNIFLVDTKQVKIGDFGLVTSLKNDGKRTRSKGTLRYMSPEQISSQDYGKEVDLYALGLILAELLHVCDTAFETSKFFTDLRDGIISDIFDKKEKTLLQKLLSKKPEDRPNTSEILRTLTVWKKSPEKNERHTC
MYLK2, sequence (Q9H1R3 whole entry): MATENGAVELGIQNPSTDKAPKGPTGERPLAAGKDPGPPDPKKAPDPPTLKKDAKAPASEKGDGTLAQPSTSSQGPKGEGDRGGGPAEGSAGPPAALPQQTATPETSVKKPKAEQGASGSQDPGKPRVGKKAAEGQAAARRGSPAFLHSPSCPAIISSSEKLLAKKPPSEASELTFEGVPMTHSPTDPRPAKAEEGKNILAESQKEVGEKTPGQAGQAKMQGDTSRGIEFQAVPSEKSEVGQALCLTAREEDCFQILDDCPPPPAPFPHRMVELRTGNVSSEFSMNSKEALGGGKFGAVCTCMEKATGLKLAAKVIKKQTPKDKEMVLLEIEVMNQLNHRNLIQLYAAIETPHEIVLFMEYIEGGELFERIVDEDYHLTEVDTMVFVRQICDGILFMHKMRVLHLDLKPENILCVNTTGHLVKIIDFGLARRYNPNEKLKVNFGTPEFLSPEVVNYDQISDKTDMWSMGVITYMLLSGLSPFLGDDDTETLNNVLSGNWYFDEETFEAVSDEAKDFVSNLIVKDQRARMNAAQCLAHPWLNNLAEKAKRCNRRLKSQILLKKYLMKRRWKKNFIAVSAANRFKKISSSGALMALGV
PIK3CA(E545A), sequence (P42336 whole entry E545A): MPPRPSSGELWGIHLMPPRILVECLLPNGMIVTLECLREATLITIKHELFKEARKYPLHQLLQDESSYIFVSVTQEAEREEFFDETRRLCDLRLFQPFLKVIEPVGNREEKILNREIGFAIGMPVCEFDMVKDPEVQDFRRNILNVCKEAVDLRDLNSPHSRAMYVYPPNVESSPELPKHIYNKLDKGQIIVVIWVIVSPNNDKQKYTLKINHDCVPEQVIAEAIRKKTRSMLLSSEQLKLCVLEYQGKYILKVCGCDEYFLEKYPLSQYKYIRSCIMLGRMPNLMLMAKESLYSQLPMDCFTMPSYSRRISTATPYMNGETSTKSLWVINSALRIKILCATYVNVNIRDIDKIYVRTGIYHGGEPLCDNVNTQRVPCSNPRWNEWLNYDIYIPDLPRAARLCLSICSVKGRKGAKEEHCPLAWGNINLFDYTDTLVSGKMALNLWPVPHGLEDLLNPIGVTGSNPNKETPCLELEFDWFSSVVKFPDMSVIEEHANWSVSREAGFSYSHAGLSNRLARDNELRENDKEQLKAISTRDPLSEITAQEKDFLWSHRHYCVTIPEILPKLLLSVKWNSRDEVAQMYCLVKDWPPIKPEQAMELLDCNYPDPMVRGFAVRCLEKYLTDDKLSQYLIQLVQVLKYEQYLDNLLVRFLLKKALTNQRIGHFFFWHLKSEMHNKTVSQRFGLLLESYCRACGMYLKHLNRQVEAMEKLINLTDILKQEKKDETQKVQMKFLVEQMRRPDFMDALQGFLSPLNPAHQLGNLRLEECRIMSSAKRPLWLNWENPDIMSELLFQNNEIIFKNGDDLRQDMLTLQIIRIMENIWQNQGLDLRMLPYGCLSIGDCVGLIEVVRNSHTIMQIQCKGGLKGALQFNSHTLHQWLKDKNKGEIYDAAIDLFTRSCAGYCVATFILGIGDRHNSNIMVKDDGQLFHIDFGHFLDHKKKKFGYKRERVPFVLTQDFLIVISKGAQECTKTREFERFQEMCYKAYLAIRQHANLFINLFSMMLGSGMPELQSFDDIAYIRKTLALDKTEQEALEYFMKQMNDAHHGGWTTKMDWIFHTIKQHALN
CDK9, sequence (P50750 whole entry): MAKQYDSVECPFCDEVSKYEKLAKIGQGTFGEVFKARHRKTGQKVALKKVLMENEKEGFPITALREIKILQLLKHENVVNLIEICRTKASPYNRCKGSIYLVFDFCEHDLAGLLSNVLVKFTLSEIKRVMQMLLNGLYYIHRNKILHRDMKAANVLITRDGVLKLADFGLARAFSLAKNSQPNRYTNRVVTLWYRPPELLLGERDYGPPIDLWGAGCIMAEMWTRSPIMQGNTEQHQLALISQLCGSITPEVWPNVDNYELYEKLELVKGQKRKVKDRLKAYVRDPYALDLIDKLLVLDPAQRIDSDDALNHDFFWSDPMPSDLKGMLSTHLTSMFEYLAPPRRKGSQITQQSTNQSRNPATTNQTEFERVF
ZAP70, sequence (P43403 whole entry): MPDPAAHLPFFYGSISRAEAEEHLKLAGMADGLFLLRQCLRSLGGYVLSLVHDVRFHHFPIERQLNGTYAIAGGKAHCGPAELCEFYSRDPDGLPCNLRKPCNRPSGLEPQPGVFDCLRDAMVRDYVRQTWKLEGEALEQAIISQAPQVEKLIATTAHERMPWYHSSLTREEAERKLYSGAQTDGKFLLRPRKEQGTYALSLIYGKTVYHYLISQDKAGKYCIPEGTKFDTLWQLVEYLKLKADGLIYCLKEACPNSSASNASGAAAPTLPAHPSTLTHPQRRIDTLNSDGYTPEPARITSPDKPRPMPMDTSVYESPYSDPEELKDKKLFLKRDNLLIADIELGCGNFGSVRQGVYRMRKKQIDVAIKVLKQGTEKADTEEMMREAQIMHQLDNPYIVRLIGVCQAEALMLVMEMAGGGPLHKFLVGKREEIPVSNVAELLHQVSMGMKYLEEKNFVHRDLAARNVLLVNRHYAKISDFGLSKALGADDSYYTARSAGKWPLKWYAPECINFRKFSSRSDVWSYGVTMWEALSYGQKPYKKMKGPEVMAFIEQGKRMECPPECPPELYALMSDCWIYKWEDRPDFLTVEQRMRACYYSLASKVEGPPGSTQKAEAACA
T1 sequence (Q9UQ88 whole entry): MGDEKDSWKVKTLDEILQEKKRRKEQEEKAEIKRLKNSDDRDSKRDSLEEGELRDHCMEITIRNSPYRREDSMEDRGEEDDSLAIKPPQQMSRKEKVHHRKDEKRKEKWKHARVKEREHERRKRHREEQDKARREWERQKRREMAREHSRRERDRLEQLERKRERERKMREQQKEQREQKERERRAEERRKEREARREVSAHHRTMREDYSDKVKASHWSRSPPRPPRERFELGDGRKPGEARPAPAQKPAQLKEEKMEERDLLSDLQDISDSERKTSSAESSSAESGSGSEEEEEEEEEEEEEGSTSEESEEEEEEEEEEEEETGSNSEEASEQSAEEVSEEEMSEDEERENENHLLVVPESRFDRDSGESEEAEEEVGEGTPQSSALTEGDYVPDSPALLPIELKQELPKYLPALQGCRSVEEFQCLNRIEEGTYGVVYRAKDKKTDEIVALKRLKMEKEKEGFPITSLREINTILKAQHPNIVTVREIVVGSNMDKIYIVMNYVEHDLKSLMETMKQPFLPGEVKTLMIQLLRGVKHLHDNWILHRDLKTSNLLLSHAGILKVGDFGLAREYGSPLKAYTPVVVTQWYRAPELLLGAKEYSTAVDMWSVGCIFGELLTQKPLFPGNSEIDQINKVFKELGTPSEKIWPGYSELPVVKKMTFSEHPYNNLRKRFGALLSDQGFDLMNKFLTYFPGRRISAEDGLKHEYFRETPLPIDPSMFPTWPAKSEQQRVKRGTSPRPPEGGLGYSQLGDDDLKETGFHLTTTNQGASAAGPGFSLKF
ACVR1, sequence (Q04771 whole entry): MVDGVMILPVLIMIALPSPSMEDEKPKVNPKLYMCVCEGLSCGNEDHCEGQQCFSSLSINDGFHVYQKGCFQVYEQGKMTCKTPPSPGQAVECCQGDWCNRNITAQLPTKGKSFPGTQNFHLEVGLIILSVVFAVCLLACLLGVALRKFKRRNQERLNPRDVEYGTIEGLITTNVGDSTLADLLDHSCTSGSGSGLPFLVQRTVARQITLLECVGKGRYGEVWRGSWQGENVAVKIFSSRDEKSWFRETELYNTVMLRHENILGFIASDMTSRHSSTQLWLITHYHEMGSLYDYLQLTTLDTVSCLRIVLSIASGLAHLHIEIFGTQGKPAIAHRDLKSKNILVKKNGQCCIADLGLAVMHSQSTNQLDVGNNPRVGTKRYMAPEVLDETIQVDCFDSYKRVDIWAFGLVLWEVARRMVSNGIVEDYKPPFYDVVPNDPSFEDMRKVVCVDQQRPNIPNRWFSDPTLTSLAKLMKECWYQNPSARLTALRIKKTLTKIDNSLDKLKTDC
RIOK2, sequence (Q9BVS4 whole entry): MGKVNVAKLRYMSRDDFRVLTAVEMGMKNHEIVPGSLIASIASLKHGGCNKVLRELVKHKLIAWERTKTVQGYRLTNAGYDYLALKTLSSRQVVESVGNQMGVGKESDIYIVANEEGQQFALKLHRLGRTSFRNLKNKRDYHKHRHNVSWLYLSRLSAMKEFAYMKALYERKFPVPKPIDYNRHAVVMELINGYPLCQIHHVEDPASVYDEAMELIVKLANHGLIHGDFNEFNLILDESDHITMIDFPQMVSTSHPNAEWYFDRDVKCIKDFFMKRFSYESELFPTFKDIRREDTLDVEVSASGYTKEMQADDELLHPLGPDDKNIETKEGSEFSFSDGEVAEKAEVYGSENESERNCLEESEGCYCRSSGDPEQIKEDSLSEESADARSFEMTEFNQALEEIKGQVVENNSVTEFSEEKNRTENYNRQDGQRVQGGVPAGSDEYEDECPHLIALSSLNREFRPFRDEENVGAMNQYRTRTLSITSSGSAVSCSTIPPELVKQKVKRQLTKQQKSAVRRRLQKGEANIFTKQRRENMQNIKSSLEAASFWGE

Q: Which results are given for `CC#CC(=O)N1CCC[C@H]1c1nc(-c2ccc(C(=O)Nc3ccccn3)cc2)c2c(N)nccn12` [Acalabrutinib]?
A: remaining binding at 0.3 µM (CDC2L2): 82%; remaining binding at 0.3 µM (CDK9): 94%; remaining binding at 0.3 µM (JNK3): 94%

Q: With `C=CC(=O)N1CCC[C@@H](n2nc(-c3ccc(Oc4ccccc4)cc3)c3c(N)ncnc32)C1` [Ibrutinib] as the molecule, how does the remaining binding at 0.3 µM (CAMK2A) read?
A: The remaining binding at 0.3 µM was 82%.

Q: With `CC#CC(=O)N1CC[C@@H](n2c(=O)n(-c3ccc(Oc4ccccc4)cc3)c3c(N)ncnc32)C1` [Tirabrutinib] as the molecule, how does the remaining binding at 0.3 µM (PRKR) read?
A: The remaining binding at 0.3 µM was 93%.

Q: Which results are given for `C=CC(=O)N1CCC([C@@H]2CCNc3c(C(N)=O)c(-c4ccc(Oc5ccccc5)cc4)nn32)CC1` [Zanubrutinib]?
A: remaining binding at 0.3 µM (EPHA5): 97%; remaining binding at 0.3 µM (PIK3CA(E545A)): 59%; remaining binding at 0.3 µM (MYLK2): 96%; remaining binding at 0.3 µM (GRK1): 100%; remaining binding at 0.3 µM (AKT1): 100%; remaining binding at 0.3 µM (RIOK2): 94%; remaining binding at 0.3 µM (ACVR1): 100%; remaining binding at 0.3 µM (PLK1): 100%; remaining binding at 0.3 µM (ZAP70): 68%; remaining binding at 0.3 µM (VRK2): 97%
